Test results reported in US11117866B2, “Terpineol and preparation method and application thereof” (priority 2016, dated 2021).
Read-outs that look alike come from different tables or passages of the source.

Key:
[1] = test system: Rat asthma model; assay: Rat asthma model, nucleated (inflammatory) cell count in bronchi alveolar lavage fluid (BALF); format: in vivo; conditions: BALF total nucleated cells, model group 182.50 ± 24.52, blank group 85.50 ± 18.70
Source text: Rat asthma model was established, and proceeded with blunt dissection of trachea following the last feeding of drug for trachea alveolar washing. Bronchi alveolar lavage fluid (BALF) was collected, and total number of nucleated cells were counted.

[2] = test system: Rat PAH model; assay: Monocrotaline incurred pulmonary hypertension in rats, right ventricular systolic pressure; format: in vivo; conditions: 200 mg/Kg daily, 30th day, right cardiac catheterization, x ± s, model group 43.78 ± 2.14, normal group 21.08 ± 2.13
Procedure: Method: Rat PAH model was established, and normal saline was fed to contrast group with volume equivalent to that for injection. Drug for interference was fed 2 days after radiography. 200 mg/Kg per compound was fed on daily basis. Normal saline was used with equivalent volume for lavage to the contrast group and model group respectively. Right ventricular systolic pressure of rat was measured by means of Right cardiac catheterization at anesthesia state on the 30th day.

[3] = test system: Isolated tracheal strip (trachea smooth muscle); assay: Isolated tracheal strip relaxation (diastolic rate) after acetylcholine chloride contraction; conditions: read-out: Relaxation rate %
Procedure: Method: Isolated tracheal strip was fabricated, and was placed in the in-vitro tracheal experiment device; 100 μL acetylcholine chloride was added following tension adjustment and balancing to make the trachea extract, and the tension of trachea was increased. Once the tension was increased to the maximum value, and became balanced, corresponding trial drug was fed to inhibit extraction of the trachea; isometric muscle tension variation curve was recorded, and diastolic rate of smooth muscle was calculated. Diastolic rate=(tension after radiography−tension after dosing)/(tension after radiography)*100%.

[4] = test system: tracheal smooth muscle; conditions: guinea pig, cited from earlier work
[5] = test system: isolated atria; conditions: guinea pig; cited from earlier work
[6] = 0.75 mmol/L, isolated tracheal strip contracted with acetylcholine chloride
[7] = 1.25 mmol/L, isolated tracheal strip contracted with acetylcholine chloride

## CC1=CCC(C(C)(C)OC(=O)CN2CCOCC2)CC1 (stereo not drawn) [D]
[1]
  Inflammatory cell: 110.5 ± 16.21 × 10^8/L
[2]
  RVSP: 32.04 ± 1.12^Δ mmHg
[3]; [6]
  inhibition at 750 µM: 36.6 ± 13.8%
[3]; [7]
  inhibition at 1250 µM: 59.4 ± 14.7%

## CCCCCCCCCCCCCCCCCC(=O)OC(C)(C)C1CC=C(C)CC1 (stereo not drawn) [B]
[1]
  Inflammatory cell: 134.50 ± 25.27^Δ × 10^8/L
[2]
  RVSP: 36.08 ± 2.01 mmHg
[3]; [6]
  inhibition at 750 µM: 15.4 ± 9.83%
[3]; [7]
  inhibition at 1250 µM: 10.6 ± 13.8%

## CC1CCC(C(C)(C)O)CC1 (stereo not drawn) [N]
[1]
  Inflammatory cell: 140.00 ± 26.21^Δ × 10^8/L
[2]
  RVSP: 32.56 ± 2.82^Δ mmHg
[3]; [6]
  inhibition at 750 µM: 27.2 ± 14.1%
[3]; [7]
  inhibition at 1250 µM: 41.3 ± 13.2%

## CC1=CCC(C(C)(C)OC(=O)CN(CCO)CCO)CC1 (stereo not drawn) [M]
[1]
  Inflammatory cell: 97.50 ± 13.11 × 10^8/L
[2]
  RVSP: 33.36 ± 2.05^Δ mmHg
[3]; [6]
  inhibition at 750 µM: 27.7 ± 2.08%
[3]; [7]
  inhibition at 1250 µM: 61 ± 5.07%

## CC1=CCC(C(C)(C)OC(=O)CN2CCCCC2)CC1 (stereo not drawn) [L]
[1]
  Inflammatory cell: 110.50 ± 16.18 × 10^8/L
[2]
  RVSP: 25.36 ± 1.17^ΔΔ# mmHg
[3]; [6]
  inhibition at 750 µM: 42.5 ± 6.14%
[3]; [7]
  inhibition at 1250 µM: 52.2 ± 6.98%

## CC1=CCC(C(C)(C)OC(=O)CN(C)CCO)CC1 (stereo not drawn) [C]
[1]
  Inflammatory cell: 77.50 ± 68.81 × 10^8/L
[2]
  RVSP: 22.33 ± 1.03^ΔΔ## mmHg
[3]; [6]
  inhibition at 750 µM: 50.2 ± 7.3%
[3]; [7]
  inhibition at 1250 µM: 76.8 ± 7.7%

## CC1=CCC(C(C)(C)O)CC1 (stereo not drawn) [α-T, α,α,4-Trimethylcyclohex-3-en-1-methanol, reference compound]
[4]
  cAMP content in the tracheal smooth muscle: increase cAMP content
[4]; in vivo experiment and experiment in vitro
  air passage relaxation: available for air passage relaxation
[5]
  effect on isolated atria: inhibiting effect
[1]
  Inflammatory cell: 113.00 ± 21.27 × 10^8/L
[2]
  RVSP: 33.03 ± 2.22^Δ mmHg
[3]; [6]
  inhibition at 750 µM: 28.4 ± 16.1%
[3]; [7]
  inhibition at 1250 µM: 38.4 ± 13.6%

## CC1=CCC(C(C)(C)OC(=O)CSCCO)CC1 (stereo not drawn) [G]
[1]
  Inflammatory cell: 76.00 ± 18.15 × 10^8/L
[2]
  RVSP: 21.08 ± 1.31^ΔΔ# mmHg
[3]; [6]
  inhibition at 750 µM: 48.3 ± 9.36%
[3]; [7]
  inhibition at 1250 µM: 81.1 ± 10.2%

## CC1=CCC(C(C)(C)OC(=O)CN2CCC(=O)CC2)CC1 (stereo not drawn) [H]
[1]
  Inflammatory cell: 123.00 ± 17.23 × 10^8/L
[2]
  RVSP: 30.33 ± 2.03^Δ mmHg
[3]; [6]
  inhibition at 750 µM: 20.9 ± 7.55%
[3]; [7]
  inhibition at 1250 µM: 43.8 ± 10.2%

## CC1=CCC(C(C)(C)OC(=O)CN2CCC(O)CC2)CC1 (stereo not drawn) [J]
[1]
  Inflammatory cell: 99.50 ± 21.23 × 10^8/L
[2]
  RVSP: 27.06 ± 1.17^Δ mmHg
[3]; [6]
  inhibition at 750 µM: 35.2 ± 13.9%
[3]; [7]
  inhibition at 1250 µM: 71.5 ± 15.4%

## CC1=CCC(C(C)(C)OC(=O)CO[N+](=O)[O-])CC1 (stereo not drawn) [E]
[1]
  Inflammatory cell: 139.50 ± 20.71^Δ × 10^8/L
[2]
  RVSP: 35.53 ± 3.02 mmHg
[3]
  inhibition at 750 µM: 17.1 ± 6.98%
  inhibition at 1250 µM: 10.8 ± 4.46%

## CCCCCCCCCCCCCC(=O)OC(C)(C)C1CC=C(C)CC1 (stereo not drawn) [A]
[1]
  Inflammatory cell: 139.50 ± 31.24^Δ × 10^8/L
[2]
  RVSP: 35.07 ± 2.81 mmHg
[3]; [6]
  inhibition at 750 µM: 17.6 ± 2.89%
[3]; [7]
  inhibition at 1250 µM: 16.6 ± 14.5%

## CCN(CC)CC(=O)OC(C)(C)C1CC=C(C)CC1 (stereo not drawn) [F]
[1]
  Inflammatory cell: 101.50 ± 14.68 × 10^8/L
[2]
  RVSP: 23.35 ± 1.04^ΔΔ## mmHg
[3]; [6]
  inhibition at 750 µM: 42.3 ± 10.4%
[3]; [7]
  inhibition at 1250 µM: 46.7 ± 3.56%

## Cn1c(=O)c2[nH]cnc2n(C)c1=O [Aminophylline, reference compound]
[3]; [6]
  inhibition at 750 µM: 43.7 ± 10.2%
[3]; [7]
  inhibition at 1250 µM: 56.7 ± 9.26%
